According to ChEMBL document CHEMBL1128947, “Asiaticoside mimetics as wound healing agent” (1996):

Legend:
Rattus norvegicus [1] = species: Rattus norvegicus; test: Effect on the wound healing in rats at 7th postoperative day by measuring tensile strength of skin strips from the wound segments; assay type: functional
Rattus norvegicus [2] = species: Rattus norvegicus; test: Tested for its effect on the wound healing in rats at 7th postoperative day by measuring tensile strength of skin strips from the wound segments; value relative to control(100); assay type: functional

| Compound | Tensile strength (Rattus norvegicus [1]) | Relative value (Rattus norvegicus [2]) |
| --- | --- | --- |
| CCOC(C)OC(=O)[C@]12CC[C@@H](C)[C@H](C)C1C1=CCC3[C@@]4(C)C[C@@H](O)[C@H](O)[C@@](C)(CO)C4CC[C@@]3(C)[C@]1(C)CC2 (stereo not given in full) | 387 g cm**-2 | 135 |
| CCCCCCCCOCOC(=O)[C@]12CC[C@@H](C)[C@H](C)C1C1=CCC3[C@@]4(C)C[C@@H](O)[C@H](O)[C@@](C)(CO)C4CC[C@@]3(C)[C@]1(C)CC2 (stereo not given in full) | 468 g cm**-2 | 163 |
| C[C@@H]1CC[C@]2(C(=O)OCOCc3ccccc3)CC[C@]3(C)C(=CCC4[C@@]5(C)C[C@@H](O)[C@H](O)[C@@](C)(CO)C5CC[C@]43C)C2[C@H]1C (stereo not given in full) | 327 g cm**-2 | 114 |
| CCOCOC(=O)[C@]12CC[C@@H](C)[C@H](C)C1C1=CCC3[C@@]4(C)C[C@@H](OC(C)=O)[C@H](OC(C)=O)[C@@](C)(COC(C)=O)C4CC[C@@]3(C)[C@]1(C)CC2 (stereo not given in full) | 487 g cm**-2 | 215 |
| COCCOCOC(=O)[C@]12CC[C@@H](C)[C@H](C)C1C1=CCC3[C@@]4(C)C[C@@H](OC(C)=O)[C@H](OC(C)=O)[C@@](C)(COC(C)=O)C4CC[C@@]3(C)[C@]1(C)CC2 (stereo not given in full) | 320 g cm**-2 | 141 |
| CC(=O)OC[C@@]1(C)C2CC[C@]3(C)C(CC=C4C5[C@@H](C)[C@H](C)CC[C@]5(C(=O)OC5CCCO5)CC[C@]43C)[C@@]2(C)C[C@@H](OC(C)=O)[C@@H]1OC(C)=O (stereo not given in full) | 331 g cm**-2 | 145 |
| COCCOCOC(=O)[C@]12CC[C@@H](C)[C@H](C)C1C1=CCC3[C@@]4(C)C[C@@H](O)[C@H](O)[C@@](C)(CO)C4CC[C@@]3(C)[C@]1(C)CC2 (stereo not given in full) | 398 g cm**-2 | 139 |
| COCOC(=O)[C@]12CC[C@@H](C)[C@H](C)C1C1=CCC3[C@@]4(C)C[C@@H](O)[C@H](O)[C@@](C)(CO)C4CC[C@@]3(C)[C@]1(C)CC2 (stereo not given in full) | 404 g cm**-2 | 141 |
| C[C@@H]1CC[C@]2(C(=O)OC3CCCCO3)CC[C@]3(C)C(=CCC4[C@@]5(C)C[C@@H](O)[C@H](O)[C@@](C)(CO)C5CC[C@]43C)C2[C@H]1C (stereo not given in full) | 481 g cm**-2 | 168 |
| COCOC(=O)[C@]12CC[C@@H](C)[C@H](C)C1C1=CCC3[C@@]4(C)C[C@@H](OC(C)=O)[C@H](OC(C)=O)[C@@](C)(COC(C)=O)C4CC[C@@]3(C)[C@]1(C)CC2 (stereo not given in full) | 330 g cm**-2 | 145 |
| CCOCOC(=O)[C@]12CC[C@@H](C)[C@H](C)C1C1=CCC3[C@@]4(C)C[C@@H](O)[C@H](O)[C@@](C)(CO)C4CC[C@@]3(C)[C@]1(C)CC2 (stereo not given in full) | 476 g cm**-2 | 166 |
| CCCCOC(C)OC(=O)[C@]12CC[C@@H](C)[C@H](C)C1C1=CCC3[C@@]4(C)C[C@@H](O)[C@H](O)[C@@](C)(CO)C4CC[C@@]3(C)[C@]1(C)CC2 (stereo not given in full) | 362 g cm**-2 | 126 |
| CCCCCCCCOCOC(=O)[C@]12CC[C@@H](C)[C@H](C)C1C1=CCC3[C@@]4(C)C[C@@H](OC(C)=O)[C@H](OC(C)=O)[C@@](C)(COC(C)=O)C4CC[C@@]3(C)[C@]1(C)CC2 (stereo not given in full) | 310 g cm**-2 | 137 |
| CC(=O)OC[C@@]1(C)C2CC[C@]3(C)C(CC=C4C5[C@@H](C)[C@H](C)CC[C@]5(C(=O)OC5CCCCO5)CC[C@]43C)[C@@]2(C)C[C@@H](OC(C)=O)[C@@H]1OC(C)=O (stereo not given in full) | 393 g cm**-2 | 173 |
| C[C@@H]1CC[C@]2(C(=O)O)CC[C@]3(C)C(=CCC4[C@@]5(C)C[C@@H](O)[C@H](O)[C@@](C)(CO)C5CC[C@]43C)C2[C@H]1C (stereo not given in full) | 418 g cm**-2 | 146 |
